This experiment deals with ChAER1. Description: HPLC quantification of 4-hydroxydihydrocinnamaldehyde formation, crude enzyme. The experiment is classed as biochemical, Cephalotaxus harringtonia. The note with it: 1 mM NADPH, 50 mM Tris-HCl pH 7.5, 30 °C, 1 h.

We go through one molecule from paper PMC11625190 (Synthetic and Systems Biotechnology, 2024).

SMILES strings stand for the structures.

Consider `O=C/C=C/c1ccc(O)cc1` [p-coumaraldehyde], for which the Km was determined as 467 µM.
